Experiments:
[1] = Side by side bleaching of Kraft pulp, hand sheet Kappa number, pH and ORP; details: for Kappa No.: unbleached 30
[2] = Thermal activation in distilled water at pH 8.5 and 50° C.; assay type: physicochemical; details: pH 8.5, 50° C.
[3] = system: microbial control in water; experiment: Microbial control in water at slightly alkaline pH; assay type: cell-based
Text: In some embodiments, microbial control in water at slightly alkaline pH was compared between peracetate oxidant, […] bleach, peracetic acid and […] dioxide. Alkaline pH is encountered in a variety of applications where microbial control and sanitization is needed, including pulp and paper processing, cooling towers, water treatment and chill tanks in poultry processing. […].

[4] = gas; cited from earlier work
[5] = 20° C.; cited from earlier work
[6] = 1.13 g/L PAA equiv., initial pH 8.2, 30 min

| Compound | Kappa No. ([1]; 4.0 g/L PAA equiv., initial pH 7.0, 30 min) | Kappa No. ([1]; 4.0 g/L PAA equiv., initial pH 8.9, 30 min) | Kappa unit reduction (bleaching efficiency) ([1]; hand sheet tests, initial Kappa number 30) | time of stable peracetic acid and hydrogen peroxide concentrations [2] | ORP ([2]; peracetate value within 40 minutes) | performance as antimicrobial disinfectant [3] | Final ORP [1, 6] | Kappa No. [1, 6] | vapor pressure [4] | solubility limit in water [5] |
| --- | --- | --- | --- | --- | --- | --- | --- | --- | --- | --- |
| CC(=O)OO [PAA, peracetic acid] | 31 | 29 | only up to one Kappa unit reduction | about 90 minutes | around 280 mV vs SHE | lowest performance |  |  |  |  |
| chlorine dioxide [ClO2] |  |  |  |  |  | performed well | 896 mV vs SHE | 22 | greater than 1 atm | 0.8 % wt/vol |
